Measurements published in patent US20220373555A1, “Methods to detect or quantify a gadolinium-based contrast agent in a sample using a luminescent agent able to chelate a Gd3+ cation” (THE REGENTS OF THE UNIVERSITY OF CALIFORNIA, priority 2021, published 2022).

How the values were obtained:
[1] = Selectivity of the Eu3+-3,4,3-LI(1,2-HOPO) probe: optical response to Gd3+ and interfering cations; assay type: physicochemical; conditions: 50 μM cation; emission at 620 nm, 315 nm excitation
Description: The optical response (FIG. 2b) of the Eu^3+-3,4,3-LI(1,2-HOPO) complex to Gd^3+ ions and several potential interfering cations is examined.
2 μL 3,4,3-LI(1,2-HOPO) (1 mM) are added to various solutions containing 50 μM of Gd^3+, Na^+, K^+, Ca^2+ or Mg^2+, mixed for 10 s, and left to incubate at room temperature, without stirring for 10 min. 2 μL EuCl3 (1 mM) are added to the solutions, mixed for 10 s, and left undisturbed for 10 min before recording emission spectra from 500 to 700 nm, under 315 nm excitation with a SpectraMax iD3 Multi-Mode Microplate Reader.

[2] = Effect of urine on Eu3+-3,4,3-LI(1,2-HOPO) emission / stability in urine; assay type: physicochemical
Description: Urine is a complex matrix comprised of salts and metabolism by-products, which can potentially affect assay response. […] Although the average pH of human urine is 6.0, there is a strong variation among individuals.^37 Therefore, the following in vitro experiments are performed with urine at 50% dilution with […] buffer (50 mM, pH 6.0) to fix the acidity of the solution, preventing potential variations in the assay response due to sample pH, and 10 min incubation times, which had been optimized in preliminary experiments.
2 μL 3,4,3-LI(1,2-HOPO) (1 mM) and EuCl3 (1 mM) are added to a water solution, mixed for 10 s, and left to incubate at room temperature, without stirring, for 10 min. The absorption spectrum (from 250 to 425 nm) and luminescence spectrum (from 500 to 750 nm under 315 nm excitation) are recorded with a SpectraMax iD3 Multi-Mode Microplate Reader (Molecular Devices, Sunnyvale, Calif.).

[3] = Quantification of GBCAs in mouse urine by luminescence assay; assay type: in vivo, Swiss Webster mice; conditions: for [GBCA] in assay solution: mouse urine 2 h after injection, diluted in MES buffer; for [GBCA] in original sample: mouse urine collected 2 h after injection; for GBCA concentration in mouse urine, Luminescence assay: urine collected 2 h after i.v. injection, 0.3 mmol/kg
Description: (§1) Finally, the luminescence assay by quantifying GBCAs in mouse urine samples is validated. The three GBCAs are intravenously injected (four mice per group), and urine is collected 2 h after injection, as mice excrete the contrast agents more quickly than humans do.^41 Due to the different composition between mouse and human urine,^42 calibration curves (FIG. 7) are performed by spiking GBCA standards into urine from control mice rather than into synthetic human urine. Table 4 reports the assay response to the mouse urine samples, and Table 3 compares the GBCA concentrations quantified by the assay versus inductively coupled plasma optical emission spectrometry (ICP-OES), which is one of the gold standard techniques for gadolinium quantification.^43 The assay provided values that are very similar to those of ICP-OES, with only slightly higher standard deviations.
(§2) The protocol used in the animal studies is reviewed and approved by the Institutional Animal Care and Use Committee of Lawrence Berkeley National Laboratory, and is performed in AAALAC-accredited facilities according to prescribed guidelines and regulations. The animals are young adult (78 days old) female (33.0±1.4 g) Swiss Webster mice (Simonsen Laboratories, Gilroy, Calif., USA). Mice are kept under a 12 h light cycle with controlled temperature (21-24° C.) and relative humidity (30-70%), and are given water and food ad libitum. Each group is housed together in a plastic stock cage lined with a 0.5 cm layer of highly absorbent low-ash pelleted cellulose bedding (ALPHA-dri). Groups of four mice are injected intravenously into a warmed lateral tail vein with a single dose of GBCA (0.3 mmol/kg mouse) or bacteriostatic 0.9 bio sodium chloride solution (control group), and urine is collected after 2 h through bladder massage method. Finally, euthanasia is performed under isotiurane anesthesia.
Because the GBCA concentration in mouse urine is very high at early excretion times, the samples are diluted in buffer as described: 1 μL mouse urine samples are mixed with […] MES solutions (final concentration 50 mM, pH 6.0). 4 μL 3,4,3-LI(1,2-HOPO) (1 mM) are added to each solution, mixed for 10 s, and left to incubate at room temperature, without stirring for 10 min. 4 μL EuCl3 (1 mM) are added, mixed for 10 s and left undisturbed for 10 min before recording emission spectra from 500 to 700 nm under 315 nm excitation with a SpectraMax iD3 Multi-Mode Microplate Reader. For calibration curve preparation, GBCA standard solutions are spiked into urine of control mice. The resulting solutions are quantified as previously described in this paragraph.

[4] = Quantification of GBCAs in mouse urine by ICP-OES; assay type: in vivo, Swiss Webster mice; conditions: urine collected 2 h after i.v. injection, 0.3 mmol/kg
Description: as §1
as §2, with “Groups of four mice are injected intravenously into a warmed lateral tail vein with a single dose of GBCA (0.3 mmol/kg mouse) or bacteriostatic 0.9 bio sodium chloride solution (control group), and urine is collected after 2 h through bladder massage method. Finally, euthanasia is performed under isotiurane anesthesia.” left out
To quantify the concentrations of the GBCA in mouse urine by ICP-OES, 50 μL of commercial stock solutions are digested in 100 μL of nitric acid (70%) and 100 μL of hydrogen chloride (6 N) for 3 h at 60 ° C. and re-dispersed in 4.75 mL of Milli-Q water. The final concentration of gadolinium in solution is quantified on a Perkin Elmer 5300 DV optical emission ICP with auto sampler at the Inductively Coupled Plasma Spectroscopy Facility of the University of California, Berkeley. […]

[5] = Detection of GBCA in synthetic human urine by luminescence quenching assay; conditions: GBCA increased up to 150 μM; 50% synthetic human urine, 50 mM MES pH 6.0
Description: In this assay, 3,4,3-LI(1,2-HOPO) is added to the urine sample and, in the absence of GBCAs, 1,2-HOPO groups remain available to complex other metal species. Eu^3+ is then added, and its emission is sensitized (FIG. 3). In the presence of GBCAs, however, 1,2-HOPO units acquire the Gd^3+ from the contrast agent because of their higher affinity for the metal compared to clinical ligands,^23 preventing the coordination of subsequently added Eu^3+. Thus, a drastic emission quenching is induced in presence of GBCAs.
Surine™ samples containing different amounts of GBCA are diluted down to 50% with MES solution (final concentration 50 mM, pH 6.0). 2 μL 3,4,3-LI(1,2-HOPO) (1 mM) are added to each solution, mixed for 10 s, and left to incubate at room temperature, without stirring for 10 min. 2 μL EuCl3 (1 mM) are added, mixed for 10 s and left undisturbed for 10 min before recording emission spectra from 500 to 700 nm under 315 nm excitation with a SpectraMax iD3 Multi-Mode Microplate Reader.
The limit of detection is calculated as: […]
Where ILOD is the assay response intensity at the limit of detection, Iblank is the response intensity of the blank, and σblank is the standard deviation for the blank signal.

Molecule | [GBCA] in assay solution [3] | [GBCA] in original sample [3] | GBCA concentration in mouse urine, Luminescence assay [3] | GBCA concentration in mouse urine, ICP-OES [4] | other results
O.O.O.O.O.O.[Cl-].[Cl-].[Cl-].[Gd+3] [Gd^3+, gadolinium (III) chloride hexahydrate] |  |  |  |  | quenching of 20 μM Eu^3+-3,4,3-LI(1,2-HOPO) emission [1]: 71±1%
O=C(NCCCN(CCCCN(CCCNC(=O)c1cccc(=O)n1O)C(=O)c1cccc(=O)n1O)C(=O)c1cccc(=O)n1O)c1cccc(=O)n1O [3,4,3-LI(1,2-HOPO)] |  |  |  |  | stability in urine ([2]; urine): stable in urine
Eu^3+-3,4,3-LI(1,2-HOPO) |  |  |  |  | effect of urine on emission ([2]; 20 μM, 0 to 100% artificial human urine (Surine), 315 nm excitation): not affected by urine

Continued, in another order:

[GBCA] in assay solution [3] | [GBCA] in original sample [3] | GBCA concentration in mouse urine, Luminescence assay [3] | GBCA concentration in mouse urine, ICP-OES [4] | Molecule | other results
101 ± 3 µM | 0.020 ± 0.001 M | 0.020 ± 0.001 M | 0.024 ± 0.000 M | CNC(=O)CN(CCN(CCN(CC(=O)[O-])CC(=O)NC)CC(=O)[O-])CC(=O)[O-].[Gd+3] [Omnsican, gadodiamide] | 
86 ± 9 µM | 0.017 ± 0.004 M | 0.017 ± 0.004 M | 0.015 ± 0.000 M | CNC[C@H](O)[C@@H](O)[C@H](O)[C@H](O)CO.CNC[C@H](O)[C@@H](O)[C@H](O)[C@H](O)CO.O=C([O-])CN(CCN(CC(=O)[O-])CC(=O)O)CCN(CC(=O)O)C(COCc1ccccc1)C(=O)[O-].[Gd+3] (stereo not shown) [Multihance, gadobenate dimeglumine] | 
101 ± 13 µM | 0.020 ± 0.005 M | 0.020 ± 0.005 M | 0.018 ± 0.000 M | CNC[C@H](O)[C@@H](O)[C@H](O)[C@H](O)CO.CNC[C@H](O)[C@@H](O)[C@H](O)[C@H](O)CO.O=C([O-])CN(CCN(CC(=O)[O-])CC(=O)O)CCN(CC(=O)[O-])CC(=O)O.[Gd+3] [Magnevist, gadopentetate dimeglumine] | decrease of luminescence of the assay solution [5]: 75±1%
